# Assay results taken from patent publication US20090118211A1, “Compositions and Methods for Enhancement of Sexual Function” (priority 2005, published 2009).
# Several values for one entry are separate records, joined by “and”; a condition that tells them apart may be missing. Equal values may be shown once. Read-outs that look alike come from different tables or passages of the source.
# Key:
# [1] = cited from earlier work; for maximum observed plasma concentration (Cmax): oral administration
# [2] = system: premature ejaculation; conditions: cited from earlier work
# [3] = system: premature ejaculation; test: Retrospective analysis of clomipramine with or without a commercial PDE5 inhibitor taken as needed: ejaculation time; conditions: rated after 8 weeks, one patient per row
# [4] = system: erectile dysfunction; test: Retrospective analysis of clomipramine with or without a commercial PDE5 inhibitor taken as needed: subjectively rated erection; conditions: after 8 weeks, one patient per row
# [5] = system: SSRI-induced sexual dysfunction; conditions: in vivo; cited from earlier work
# [6] = system: erectile dysfunction; conditions: oral administration of 50-100 mg; cited from earlier work
compound,measurement,setting,value
"CN(C)CCCN1c2ccccc2CCc2ccc(Cl)cc21 [Clomipramine, clomipramine]",time of peak plasma levels after dosage,[1]; much individual variation,2 to 6 h
same,"time required to reach peak plasma concentration, longer than that required by tadalafil",[1]; relative to tadalafil,about 2 hours
same,"time required to reach peak plasma concentration, longer than that required by either vardenafil or sildenafil",[1]; relative to vardenafil or sildenafil,3 h
same,time to climax in premature ejaculators,[2]; 50 mg,more than 8 minutes
same,latency to ejaculation,"[2]; 25 milligrams 12 to 24 hours before anticipated sexual activity, from about 1.5 to 2 minutes",about 8 minutes
same,effect alone in men with premature ejaculations who were also impotent,[2]; clomipramine alone,ineffective
same,Ejaculation Time (minutes) after treatment,[3]; Clomipramine 10 mg alone,10 min
same,Ejaculation Time (minutes) after treatment,[3]; Clomipramine 15 mg alone,10 min and 4 min and 20 min
same,Ejaculation Time (minutes) after treatment,[3]; Clomipramine 25 mg alone,7 minutes (2×) and 20 minutes (2×) and 15 minutes
same,Ejaculation Time (minutes) after treatment,[3]; Clomipramine 30 mg alone,10 minutes (3×) and 15 minutes (2×) and 8 minutes and 4 minutes (2×) and 5 minutes and 20 minutes and 0.25 minutes and 3 minutes
same,Erection (% satisfaction) after (%),[4]; Clomipramine 10 mg alone,100%
same,Erection (% satisfaction) after (%),"[4]; Clomipramine 15 mg alone, NC denotes no complain",100%
same,Erection (% satisfaction) after (%),"[4]; Clomipramine 25 mg alone, NC denotes no complain",100%
CN1CC(=O)N2[C@H](c3ccc4c(c3)OCO4)c3[nH]c4ccccc4c3C[C@@H]2C1=O [tadalafil],Systemic exposure (AUC) versus dose,[1]; doses from 2.5 mg to 20 mg,increases proportionately
same,increase in Cmax versus dose,[1]; doses from 2.5 mg to 20 mg,slightly less than proportional
same,degree of drug accumulation,[1]; once-daily 20 mg dosing,1.6 fold
same,time to attain steady-state plasma concentrations,[1]; once-daily 20 mg dosing,≤ 5 days
same,maximum observed plasma concentration (Cmax),[1]; 20 mg,378 ng/mL
CCCN(CCC)CCc1cccc2c1CC(=O)N2 [ropinrole],"effect on sexual dysfunction induced by citalopram, sertraline, paroxetine, fluoxetine and venlafaxine treatment",[5],effective
"CN[C@H]1CC[C@@H](c2ccc(Cl)c(Cl)c2)c2ccccc21 [Sertraline, sertraline]",effect as ejaculation delaying agent,"[2]; 4 hours before sex, primary premature ejaculation versus sildenafil-corrected erectile dysfunction",effective as ejaculation delaying agent only for patients having primary premature ejaculation
CCCc1nc(C)c2c(=O)[nH]c(-c3cc(S(=O)(=O)N4CCN(CC)CC4)ccc3OCC)nn12 [vardenafil],AUC and Cmax versus dose,"[1]; oral dosing, recommended dose range (5-20 mg)",increase in almost direct proportion to the dose
CCCc1nn(C)c2c(=O)[nH]c(-c3cc(S(=O)(=O)N4CCN(C)CC4)ccc3OCC)nc12 [sildenafil],subjects studied found to respond well,[6],82%
same,maximum observed plasma concentration (Cmax),[1]; 50-100 mg,18 ng/mL
same,effect alone for men with premature ejaculation,[2]; PDE5 inhibitor alone,ineffective
